Experimental data reported in patent US12453708B2, “Aminonaphthoquinone compounds for treatment and/or prevention of fibrosis diseases” (CALGENT BIOTECHNOLOGY CO., LTD., priority 2015, dated 2025).

How the values were obtained:
[1] = tested on: TGF-β-induced α-SMA expression in WI-38 cells; experiment: TGF-β-induced α-SMA expression in WI-38 cells (Western blot); format: cell-based, human; conditions: WI-38 lung fibroblasts, 0.3, 1, 3 or 10 μM for 30 min before and during incubation with TGF-β (10 ng/mL)
Description: FIGS. 5 (A) and (B) show the effect of L056 on TGF-β-induced α-SMA expression in WI-38 cells. WI-38 lung fibroblasts were incubated with different concentrations of L056 (0.3, 1, 3 or 10 μM) for 30 min before and during incubation for 2 h with TGF-β (10 ng/mL). […] (A), Western blot plot; (B), Quantitative assay of Western blot WI-38 cells, a normal human embryonic lung fibroblast cell line, were obtained from American Type Culture Collection (Manassas, VA). Cells were grown in MEM nutrient mixture, containing 10% FCS, 2 mM L-glutamine, 0.1 mM NEAA, 1 mM sodium pyruvate, 50 U/ml penicillin G, and 100 µg/ml streptomycin, in a humidified 37° C. incubator with 5% CO2 Cells were used between passages 18 and 30 for all experiments. After reaching confluence, cells were seeded onto 6-cm dishes for immunoblotting. Western blot analyses were performed as described previously (Chen B C, Chang Y S, Kang J C, Hsu M J, Sheu J R, Chen T L, et al. Peptidoglycan induces nuclear factor-kappaB activation and cyclooxygenase-2 expression via Ras, Raf-1, and ERK in RAW 264.7 macrophages. J Biol Chem 2004; 279:20889-97). […] The immunoreactivity was detected using enhanced chemiluminescence (ECL) following the manufacturer's instructions. Quantitative data were obtained using a computing densitometer with scientific imaging systems (Kodak, Rochester, NY). […]

[2] = tested on: ET-1-induced CTGF expression in WI-38 cells; experiment: ET-1-induced CTGF expression in WI-38 cells (Western blot); format: cell-based, human; conditions: WI-38 lung fibroblasts, 0.3, 1, 3 or 10 μM for 30 min before and during 2 h ET-1 (10 nM)
Description: FIGS. 2 (A) and (B) show the effect of L056 on ET-1-induced CTGF expression in WI-38 cells. WI-38 lung fibroblasts were incubated with different concentrations of L056 (0.3, 1, 3 or 10 μM) for 30 min before and during incubation for 2 h with ET-1 (10 nM). […] (A), Western blot plot; (B), Quantitative assay of Western blot. WI-38 cells, a normal human embryonic lung fibroblast cell line, were obtained from American Type Culture Collection (Manassas, VA). Cells were grown in MEM nutrient mixture, containing 10% FCS, 2 mM L-glutamine, 0.1 mM NEAA, 1 mM sodium pyruvate, 50 U/ml penicillin G, and 100 µg/ml streptomycin, in a humidified 37° C. incubator with 5% CO2 Cells were used between passages 18 and 30 for all experiments. After reaching confluence, cells were seeded onto 6-cm dishes for immunoblotting. Western blot analyses were performed as described previously (Chen B C, Chang Y S, Kang J C, Hsu M J, Sheu J R, Chen T L, et al. Peptidoglycan induces nuclear factor-kappaB activation and cyclooxygenase-2 expression via Ras, Raf-1, and ERK in RAW 264.7 macrophages. J Biol Chem 2004; 279:20889-97). Briefly, WI-38 lung fibroblasts were cultured in 6-cm dishes. […] The immunoreactivity was detected using enhanced chemiluminescence (ECL) following the manufacturer's instructions. Quantitative data were obtained using a computing densitometer with scientific imaging systems (Kodak, Rochester, NY). […]

## O=C(Nc1ccncc1)c1ccc(CNC2=C(Cl)C(=O)c3ccccc3C2=O)cc1 [Example L056, 4-(((3-chloro-1,4-dioxo-1,4-dihydronaphthalen-2-yl)amino)methyl)-N-(pyridin-4-yl)benzamide]
[1]
  TGF-β-induced α-SMA expression: significantly inhibited
[2]
  ET-1-induced CTGF production/expression: significantly inhibited
[2]; listed as MPTOL0560
  ET-1-induced CTGF production/expression: inhibited
